Laboratory results taken from PubChem BioAssay (NCI).
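96-well plates; 48 h exposure; 5 concentrations. Endpoints by linear interpolation between flanking doses. Not reached: highest tested concentration assigned. Abbreviation: GI50, concentration required for 50% inhibition of growth. TGI marks complete inhibition of growth.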

Tests used:
Experiment in all cases: inhibition of tumour cell growth, NCI panel, 48 h; in the data active = GI50 below about 0.43 µM; inactive = the rest
[1] = system: 786-0 renal
[2] = system: A498 renal
[3] = system: IGROV1 ovarian
[4] = system: HOP-62 NSCLC
[5] = system: SNB-19 CNS
[6] = system: DU-145 prostate
[7] = system: NCI/ADR-RES ovarian
[8] = system: NCI-H23 lung
[9] = system: HCC-2998 colon
[10] = system: MDA-MB-435
[11] = system: KM12 colon
[12] = system: EKVX NSCLC
[13] = system: HCT-15 colon
[14] = system: HT29 colon
[15] = system: NCI-H460 lung
[16] = system: SN12C renal
[17] = system: SW-620 colon
[18] = system: RPMI-8226 leukemia
[19] = system: MCF7 breast
[20] = system: OVCAR-3 ovarian
[21] = system: T-47D breast
[22] = system: A549 NSCLC
[23] = system: SK-MEL-2 melanoma
[24] = system: SK-MEL-28 melanoma
[25] = system: MDA-MB-231 breast
[26] = system: MOLT-4 leukemia
[27] = system: LOX IMVI melanoma
[28] = system: MALME-3M melanoma
[29] = system: K-562 leukemia
[30] = system: CCRF-CEM leukemia
[31] = system: SK-MEL-5 melanoma
[32] = system: SF-268 CNS
[33] = system: HOP-92 NSCLC
[34] = system: PC-3 prostate
[35] = system: COLO 205 colon
[36] = system: U251 CNS
[37] = system: M14 melanoma
[38] = system: ACHN renal
[39] = system: NCI-H522 lung
[40] = system: SR leukemia
[41] = system: SF-295 CNS
[42] = system: SK-OV-3 ovarian
[43] = system: OVCAR-5 ovarian
[44] = system: CAKI-1 renal
[45] = system: OVCAR-4 ovarian
[46] = system: UACC-62 melanoma
[47] = system: UO-31 renal
[48] = system: HCT-116 colon
[49] = system: HS 578T breast
[50] = system: HL-60(TB) leukemia
[51] = system: SNB-75 CNS
[52] = system: SF-539 CNS
[53] = system: NCI-H226 lung
[54] = system: TK-10 renal
[55] = system: UACC-257 melanoma
[56] = system: OVCAR-8 ovarian
[57] = system: RXF 393 renal

COc1ccc2c(c1)c(-c1ccc(-c3cn(S(=O)(=O)c4ccccc4)c4ccc(OC)cc34)s1)cn2S(=O)(=O)c1ccccc1
> 100 µM: TGI [1] | TGI [2] | TGI [3] | TGI [4] | TGI [5] | TGI [6] | TGI [7] | TGI [8] | TGI [9] | TGI [10] | TGI [11] | TGI [12] | TGI [13] | TGI [14] | TGI [15] | TGI [16] | TGI [17] | TGI [18] | TGI [19] | TGI [20] | TGI [21] | TGI [22] | TGI [23] | TGI [24] | TGI [25] | TGI [26] | TGI [27] | TGI [28] | TGI [29] | TGI [30] | TGI [31] | TGI [32] | TGI [33] | TGI [34] | TGI [35] | TGI [36] | TGI [37] | TGI [38] | TGI [39] | TGI [40] | TGI [41] | TGI [42] | TGI [43] | TGI [44] | TGI [45] | TGI [46] | TGI [47] | TGI [48] | TGI [49] | TGI [50] | TGI [51] | TGI [52] | TGI [53] | TGI [54]
inactive: GI50 [1] > 100 µM | GI50 [2] > 100 µM | GI50 [3] > 100 µM | GI50 [4] > 100 µM | GI50 [5] > 100 µM | GI50 [6] > 100 µM | GI50 [7] > 100 µM | GI50 [8] > 100 µM | GI50 [9] > 100 µM | GI50 [10] > 100 µM | GI50 [11] > 100 µM | GI50 [12] > 100 µM | GI50 [13] > 100 µM | GI50 [14] > 100 µM | GI50 [15] > 100 µM | GI50 [16] > 100 µM | GI50 [17] > 100 µM | GI50 [18] > 100 µM | GI50 [19] > 100 µM | GI50 [20] > 100 µM | GI50 [21] > 100 µM | GI50 [22] > 100 µM | GI50 [23] > 100 µM | GI50 [24] > 100 µM | GI50 [25] > 100 µM | GI50 [26] > 100 µM | GI50 [27] > 100 µM | GI50 [28] > 100 µM | GI50 [29] > 100 µM | GI50 [30] > 100 µM | GI50 [31] > 100 µM | GI50 [32] > 100 µM | GI50 [33] > 100 µM | GI50 [34] > 100 µM | GI50 [35] > 100 µM | GI50 [36] > 100 µM | GI50 [37] > 100 µM | GI50 [38] > 100 µM | GI50 [39] > 100 µM | GI50 [40] > 100 µM | GI50 [41] > 100 µM | GI50 [42] > 100 µM | GI50 [43] > 100 µM | GI50 [44] > 100 µM | GI50 [45] > 100 µM | GI50 [46] > 100 µM | GI50 [47] > 100 µM | GI50 [48] > 100 µM | GI50 [49] > 100 µM | GI50 [50] > 100 µM | GI50 [51] > 100 µM | GI50 [52] > 100 µM | GI50 [53] > 100 µM | GI50 [54] > 100 µM

COc1cc2c(cc1OCCCOc1cc(-c3ccc(F)cc3)nc(C)n1)N=C[C@@H]1CCCN1C2=O
30 µM: TGI [25]
36.1 µM: TGI [6]
> 100 µM: TGI [14] | TGI [15] | TGI [18] | TGI [19] | TGI [21] | TGI [56] | TGI [33] | TGI [35] | TGI [45]
43 µM: TGI [55] | TGI [22]
31 µM: TGI [41]
27.3 µM: TGI [28]
29.4 µM: TGI [8] | TGI [20]
32.3 µM: TGI [16]
27.4 µM: TGI [40]
54.3 µM: TGI [57]
37.2 µM: TGI [39]
30.5 µM: TGI [53]
36.2 µM: TGI [11]
64.4 µM: TGI [5]
28.3 µM: TGI [27]
28.7 µM: TGI [36] | TGI [46]
38.7 µM: TGI [47]
62.7 µM: TGI [42]
40.9 µM: TGI [31]
35.2 µM: TGI [23]
34.5 µM: TGI [54]
44.1 µM: TGI [24]
26.4 µM: TGI [2]
36.4 µM: TGI [32]
30.4 µM: TGI [38]
31.9 µM: TGI [44]
31.5 µM: TGI [1]
44.8 µM: TGI [3]
25.8 µM: TGI [13]
39.3 µM: TGI [12]
53.9 µM: TGI [30]
28.5 µM: TGI [10]
61.1 µM: TGI [26]
94.3 µM: TGI [49]
30.6 µM: TGI [48]
49.1 µM: TGI [51]
29.3 µM: TGI [37]
48.7 µM: TGI [52]
54.1 µM: TGI [50]
64 µM: TGI [17]
